≈ marks a conversion by molar mass, not a printed value.
Experiments:
Staphylococcus aureus [1] = experiment: Antimicrobial activity against methicillin-resistant Staphylococcus aureus Mi300 by microbroth dilution method; format: functional
Staphylococcus aureus [2] = experiment: Antimicrobial activity against methicillin-resistant Staphylococcus aureus Mi339 by microbroth dilution method; format: functional
Staphylococcus aureus [3] = experiment: Antibacterial activity against methicillin-resistant Staphylococcus aureus isolates by two fold dilution method; format: functional
Staphylococcus aureus [4] = experiment: Antimicrobial activity against methicillin-resistant Staphylococcus aureus isolates by agar dilution method; format: functional
Staphylococcus aureus [5] = experiment: Potency index, ratio of norfloxacin MIC to test compound MIC for antimicrobial activity against methicillin-resistant Staphylococcus aureus; format: functional
Staphylococcus aureus [6] = experiment: Antibacterial activity against methicillin-resistant Staphylococcus aureus; format: functional
Staphylococcus aureus [7] = experiment: Antimicrobial activity against methicillin-resistant Staphylococcus aureus; format: functional, organism-based
Staphylococcus aureus [8] = experiment: Antimicrobial activity against methicillin-resistant Staphylococcus aureus clinical isolate 1 measured after 18 hrs by agar dilution method; format: functional
Staphylococcus aureus [9] = experiment: Antimicrobial activity against methicillin-resistant Staphylococcus aureus clinical isolate 2 measured after 18 hrs by agar dilution method; format: functional
Staphylococcus aureus [10] = experiment: Potency index, ratio of norfloxacin MIC to test compound MIC for antimicrobial activity against methicillin-resistant Staphylococcus aureus clinical isolate 1; format: functional
Staphylococcus aureus [11] = experiment: Potency index, ratio of ciprofloxacin MIC to test compound MIC for antimicrobial activity against methicillin-resistant Staphylococcus aureus clinical isolate 1; format: functional
Staphylococcus aureus [12] = experiment: Potency index, ratio of ciprofloxacin MIC to test compound MIC for antimicrobial activity against methicillin-resistant Staphylococcus aureus clinical isolate 2; format: functional
Staphylococcus aureus [13] = experiment: Potency index, ratio of norfloxacin MIC to test compound MIC for antimicrobial activity against methicillin-resistant Staphylococcus aureus clinical isolate 2; format: functional
Staphylococcus aureus [14] = experiment: Bactericidal activity against methicillin-resistant Staphylococcus aureus assessed as inhibition of microbial growth; format: functional
Staphylococcus aureus [15] = experiment: Antimicrobial activity against methicillin-resistant Staphylococcus aureus assessed as inhibition of microbial growth; format: functional
[16] = Cytotoxicity against human HEK293 cells incubated for 72 hrs by MTT assay; format: toxicity, cell-based
Staphylococcus aureus [17] = experiment: Antibacterial activity against methicillin-resistant Staphylococcus aureus assessed as inhibition of microbial growth; format: functional
Staphylococcus aureus [18] = experiment: Antimicrobial activity against methicillin-resistant Staphylococcus aureus incubated for 18 hrs by Alamar blue staining based analysis; format: functional

With `C[C@@H](O)[C@H]1C(=O)N2C(C(=O)O)=C(COC(=O)N3CCN(c4cc5c(cc4F)c(=O)c(C(=O)O)cn5C4CC4)CC3)S[C@H]12` the MIC (Staphylococcus aureus [1]) was 0.06 µg/mL (≈ 0.0996 µM) and the MIC (Staphylococcus aureus [2]) was 0.06 µg/mL (≈ 0.0996 µM).

For `CC1CN(c2c(F)cc3c(=O)c(C(=O)O)c4scc5n4c3c2N(C)C5)CCN1C` (stereo not drawn), the MIC (Staphylococcus aureus [3]) was 0.05 µg/mL (≈ 0.12 µM).

For `COc1ccc(NC2CN(c3c(F)cc4c(=O)c(C(=O)O)cn(C5CC5)c4c3F)C2)cc1`, the MIC (Staphylococcus aureus [4]) was 0.16 µg/mL (≈ 0.362 µM).

With `O=C(O)c1cn(C2CC2)c2c(F)c(N3CC(Nc4ccc(Cl)cc4)C3)c(F)cc2c1=O` the MIC (Staphylococcus aureus [4]) was 0.016 µg/mL (≈ 0.0359 µM).

`O=C(O)c1cn(C2CC2)c2c(F)c(N3CC(N(Cc4ccccc4)Cc4ccccc4)C3)c(F)cc2c1=O` showed an MIC (Staphylococcus aureus [4]) of 0.016 µg/mL (≈ 0.031 µM).

`CCOC(=O)c1cn(CC(O)Cn2cncn2)c2c(Cl)cc(Cl)cc2c1=O` (stereo not drawn) showed a Ratio (Staphylococcus aureus [5]) of 8 and an MIC (Staphylococcus aureus [6]) of 1 µg/mL (≈ 2.43 µM).

`O=C(O)c1cn(CC(O)Cn2cncn2)c2ccc(F)cc2c1=O` (stereo not drawn) gave a Ratio (Staphylococcus aureus [5]) of 8 and an MIC (Staphylococcus aureus [6]) of 1 µg/mL (≈ 3.01 µM).

With `O=C(O)c1cn(CC(O)Cn2cncn2)c2cc(C(F)(F)F)ccc2c1=O` (stereo not drawn) the Ratio (Staphylococcus aureus [5]) was 8 and the MIC (Staphylococcus aureus [6]) was 1 µg/mL (≈ 2.62 µM).

In the case of `O=C(O)c1cn(C2CC2)c2c(F)c(N3CC(Nc4ccccc4)C3)c(F)cc2c1=O`, the MIC (Staphylococcus aureus [4]) is reported as 0.016 µg/mL (≈ 0.0389 µM).

`Cc1ccc(NC2CN(c3c(F)cc4c(=O)c(C(=O)O)cn(C5CC5)c4c3F)C2)cc1` gave an MIC (Staphylococcus aureus [4]) of 0.016 µg/mL (≈ 0.0376 µM).

`CCOC(=O)c1ccc(NC2CN(c3c(F)cc4c(=O)c(C(=O)O)cn(C5CC5)c4c3F)C2)cc1` showed an MIC (Staphylococcus aureus [4]) of 0.016 µg/mL (≈ 0.0331 µM).

Molecule `COc1cc(=O)n(C)c2ccccc12` has an IC50 (Staphylococcus aureus [7]) of 8 µM.

With `O=C(O)c1cn(C2CC2)c2cc(N3CCN(C/C(=N/O)c4ccco4)CC3)c(F)cc2c1=O` the MIC (Staphylococcus aureus [8]) was 0.19 µg/mL (≈ 0.418 µM), the MIC (Staphylococcus aureus [9]) was 0.19 µg/mL (≈ 0.418 µM) and the Ratio (Staphylococcus aureus [10]) was 4. It also gave a Ratio (Staphylococcus aureus [11]) of 2, a Ratio (Staphylococcus aureus [12]) of 2 and a Ratio (Staphylococcus aureus [13]) of 4.

`COc1c(N2CCOCC2)c(F)cc2c(=O)c(C(=O)Nc3nccs3)cn(C3CC3)c12` gave an MIC (Staphylococcus aureus [6]) of over 201 µg/mL.

`COc1c(N2CCCCC2)c(F)cc2c(=O)c(C(=O)Nc3nccs3)cn(C3CC3)c12` gave an MIC (Staphylococcus aureus [6]) of over 201 µg/mL.

In the case of `COc1c(N2CCCC2)c(F)cc2c(=O)c(C(=O)Nc3nccs3)cn(C3CC3)c12`, the MIC (Staphylococcus aureus [6]) is reported as over 201 µg/mL.

`COc1c(-n2cc3ccccc3c2)c(F)cc2c(=O)c(C(=O)Nc3nccs3)cn(C3CC3)c12` gave an MIC (Staphylococcus aureus [6]) of over 201 µg/mL.

`COc1ccc(C(=O)N2CCN(C(=O)N3CCN(c4ccc5c(=O)c(C(=O)O)cn(C6CC6)c5c4)CC3)CC2)cc1OC` showed an MBC (Staphylococcus aureus [14]) of at least 128 µg/mL and an MIC (Staphylococcus aureus [15]) of under 0.016 µg/mL.

In the case of `O=C(O)c1cn(C2CC2)c2cc(N3CCN(C/C(=N/O)c4cccs4)CC3)c(F)cc2c1=O`, the MIC (Staphylococcus aureus [8]) is reported as 0.19 µg/mL (≈ 0.404 µM), the MIC (Staphylococcus aureus [9]) is reported as 0.19 µg/mL (≈ 0.404 µM) and the Ratio (Staphylococcus aureus [10]) is reported as 4. For the same molecule, the Ratio (Staphylococcus aureus [11]) was 2, the Ratio (Staphylococcus aureus [12]) was 2 and the Ratio (Staphylococcus aureus [13]) was 4.

`COc1cc(OC)cc(C(=O)N2CCN(C(=O)N3CCN(c4ccc5c(=O)c(C(=O)O)cn(C6CC6)c5c4)CC3)CC2)c1` gave an MBC (Staphylococcus aureus [14]) of at least 128 µg/mL and an MIC (Staphylococcus aureus [15]) of under 0.016 µg/mL.

Work on `COc1ccc(Cn2c(-c3ccccc3O)nn(CN3CCN(c4c(F)cc5c(=O)c(C(=O)O)cn(C6CC6)c5c4Cl)CC3)c2=S)cc1` yielded an EC50 at 72 h [16] of 50.5 µM.

`COc1c2c(cc(F)c1N1C[C@H]3CCCN(C[C@@H](O)Cn4cc([N+](=O)[O-])nc4C)[C@H]3C1)C(=O)C(C(=O)O)=CC2C1CC1` (stereo partly drawn) gave an MIC (Staphylococcus aureus [7]) of 2 µg/mL (≈ 3.43 µM).

For `CNCC1CN(c2cc(N)c3c(=O)c(C(=O)O)cn(C4CC4)c3c2C(C)=O)CC1(C)C` (stereo not drawn), the MIC (Staphylococcus aureus [17]) was 0.015 µg/mL.

Work on `COc1c(N2CC/C(=N/Oc3ccc(Cl)cc3)C(N)C2)c(F)cc2c(=O)c(C(=O)O)cn(C3CC3)c12` (stereo not drawn) yielded an MIC (Staphylococcus aureus [18]) of 0.008 µg/mL (≈ 0.0155 µM).

`CCO/N=C1\CCN(c2nc3c(cc2F)c(=O)c(C(=O)O)cn3C2CC2)CC1(C)CN` (stereo not drawn) showed an MIC (Staphylococcus aureus [7]) of 8 µg/mL (≈ 18.5 µM).

In the case of `CNCC1CN(c2ccc3c(=O)c(C(=O)O)cn(C4CC4)c3c2)CC1(C)C` (stereo not drawn), the MIC (Staphylococcus aureus [17]) is reported as 0.015 µg/mL.

`CNCC1CN(c2ccc3c(=O)c(C(=O)O)cn(C4CC4)c3n2)CC1(C)C` (stereo not drawn) showed an MIC (Staphylococcus aureus [17]) of 0.015 µg/mL.

For `COc1cccc(C(=O)N2CCN(C(=O)N3CCN(c4ccc5c(=O)c(C(=O)O)cn(C6CC6)c5c4)CC3)CC2)c1`, the MBC (Staphylococcus aureus [14]) was at least 128 µg/mL and the MIC (Staphylococcus aureus [15]) was under 0.016 µg/mL.

`COc1ccc(C(=O)N2CCN(C(=O)N3CCN(c4ccc5c(=O)c(C(=O)O)cn(C6CC6)c5c4)CC3)CC2)c(OC)c1` gave an MBC (Staphylococcus aureus [14]) of at least 128 µg/mL and an MIC (Staphylococcus aureus [15]) of under 0.016 µg/mL.

Molecule `CC1(C)CN(c2ccc3c(=O)c(C(=O)O)cn(-c4ccc(F)cc4F)c3n2)CC1CN` (stereo not drawn) has an MIC (Staphylococcus aureus [17]) of 0.015 µg/mL.

`CC1(C)CN(c2ccc3c(=O)c(C(=O)O)cn(C4CC4)c3c2)CC1CN` (stereo not drawn) showed an MIC (Staphylococcus aureus [17]) of 0.015 µg/mL.

`C[C@@H](O)[C@H]1C(=O)N2C(C(=O)O)=C(COC(=O)N[C@H]3CCC(c4c(F)cc5c(=O)c(C(=O)O)cn(C6CC6)c5c4F)C3)S[C@H]12` (stereo partly drawn) showed an MIC (Staphylococcus aureus [1]) of at most 0.06 µg/mL and an MIC (Staphylococcus aureus [2]) of 4 µg/mL (≈ 6.46 µM).

With `COc1ccccc1C(=O)N1CCN(C(=O)N2CCN(c3ccc4c(=O)c(C(=O)O)cn(C5CC5)c4c3)CC2)CC1` the MBC (Staphylococcus aureus [14]) was at least 128 µg/mL and the MIC (Staphylococcus aureus [15]) was under 0.016 µg/mL.

From ChEMBL document CHEMBL5244218, “Quinolone derivatives and their activities against methicillin-resistant Staphylococcus aureus (MRSA)” (Eur J Med Chem, 2018)
